Source: patent US20260285855A1, “HETEROARYL DERIVATIVES AS DDRS INHIBITORS” (CHIESI FARMACEUTICI S.P.A., priority 2023, published 2026)

Tests used:
DDR1 = target: T1, DDR1 (Homo sapiens, UniProt Q08345); assay: LanthaScreen Europium Kinase Binding assay, DDR1; settings: 5 nM DDR1, 20 nM Kinase Tracer 178, 1 h at rt; Ki from IC50 by Cheng-Prusoff; read-out: Ki DDR1
T1 construct: purchased Carna Biosciences
Experimental: (§1) DDR1 and DDR2 binding assays were performed using Life Technologies LanthaScreen™ Europium Kinase Binding assay. […] IC50 values were determined in GraphPad Prism 7.0 software, using 4 parameter model: log (inhibitor) vs. response. IC50 values were converted in Ki using the Cheng-Prusoff equation (Ki-IC50/(1+ [Tracer]/Kd).

DDR2 = target: T2, DDR2 (Homo sapiens, UniProt Q16832); assay: LanthaScreen Europium Kinase Binding assay, DDR2; settings: 5 nM DDR2, 10 nM Kinase Tracer 178, 1 h at rt; Ki from IC50 by Cheng-Prusoff; read-out: Ki DDR2
T2 construct: purchased Life Technologies
T2 sequence (Q16832 22-855): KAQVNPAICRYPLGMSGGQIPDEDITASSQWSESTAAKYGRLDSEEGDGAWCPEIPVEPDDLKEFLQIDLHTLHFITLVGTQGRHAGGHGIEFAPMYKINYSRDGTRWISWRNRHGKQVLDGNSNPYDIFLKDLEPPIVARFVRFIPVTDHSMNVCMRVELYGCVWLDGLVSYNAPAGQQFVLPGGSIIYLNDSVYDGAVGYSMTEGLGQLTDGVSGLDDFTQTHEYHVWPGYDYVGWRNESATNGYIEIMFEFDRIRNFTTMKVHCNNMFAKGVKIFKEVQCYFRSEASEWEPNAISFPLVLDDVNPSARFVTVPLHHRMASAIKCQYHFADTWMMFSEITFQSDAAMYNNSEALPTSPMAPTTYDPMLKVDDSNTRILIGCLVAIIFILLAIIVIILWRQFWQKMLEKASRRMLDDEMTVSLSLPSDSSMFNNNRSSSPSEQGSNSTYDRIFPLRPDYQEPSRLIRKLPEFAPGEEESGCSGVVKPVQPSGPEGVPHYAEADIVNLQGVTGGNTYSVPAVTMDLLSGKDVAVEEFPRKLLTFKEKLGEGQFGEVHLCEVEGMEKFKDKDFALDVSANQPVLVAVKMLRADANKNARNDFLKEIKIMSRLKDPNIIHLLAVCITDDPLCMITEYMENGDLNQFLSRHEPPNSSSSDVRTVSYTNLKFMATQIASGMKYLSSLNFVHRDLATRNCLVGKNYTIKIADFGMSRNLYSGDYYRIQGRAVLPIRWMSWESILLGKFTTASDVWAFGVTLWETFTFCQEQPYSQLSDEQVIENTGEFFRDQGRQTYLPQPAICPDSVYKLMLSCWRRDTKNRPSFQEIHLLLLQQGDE
Experimental: as §1

T1 sequence (Q08345 19-913): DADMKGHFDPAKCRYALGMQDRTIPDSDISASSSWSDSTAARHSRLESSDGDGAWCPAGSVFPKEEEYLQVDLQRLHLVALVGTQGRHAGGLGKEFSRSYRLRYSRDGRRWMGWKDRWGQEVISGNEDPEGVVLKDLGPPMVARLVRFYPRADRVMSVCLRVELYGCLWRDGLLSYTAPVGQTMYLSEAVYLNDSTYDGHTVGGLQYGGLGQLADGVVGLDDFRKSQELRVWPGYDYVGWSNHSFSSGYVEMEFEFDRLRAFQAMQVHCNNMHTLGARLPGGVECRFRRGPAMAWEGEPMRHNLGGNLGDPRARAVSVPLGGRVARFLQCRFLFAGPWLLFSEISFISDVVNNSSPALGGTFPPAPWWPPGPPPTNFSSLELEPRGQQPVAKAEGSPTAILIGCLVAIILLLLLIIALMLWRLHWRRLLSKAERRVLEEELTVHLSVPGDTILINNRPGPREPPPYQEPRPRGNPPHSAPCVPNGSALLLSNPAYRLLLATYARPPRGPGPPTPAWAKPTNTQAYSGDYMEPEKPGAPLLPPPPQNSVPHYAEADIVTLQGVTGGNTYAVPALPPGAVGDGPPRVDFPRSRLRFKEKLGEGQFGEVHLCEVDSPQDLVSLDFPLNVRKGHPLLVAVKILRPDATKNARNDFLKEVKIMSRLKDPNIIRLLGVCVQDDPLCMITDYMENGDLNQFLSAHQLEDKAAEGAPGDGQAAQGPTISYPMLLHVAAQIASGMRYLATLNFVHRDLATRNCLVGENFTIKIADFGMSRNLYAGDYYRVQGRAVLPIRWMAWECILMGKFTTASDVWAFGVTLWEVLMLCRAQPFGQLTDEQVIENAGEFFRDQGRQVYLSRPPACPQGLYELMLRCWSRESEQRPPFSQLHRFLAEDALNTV

| Ki (DDR1) [nM] | Ki (DDR2) [nM] | SMILES |
| --- | --- | --- |
| < 5 | < 5 | Cn1ccn2ncc(C(=O)N3CC4(CC(NC(=O)Nc5cc(C(F)(F)F)ccc5Cl)C4)C3)c12 [Example 45, 1-(2-chloro-5-(trifluoromethyl)phenyl)-3-(2-(1-methyl-1H-imidazo[1,2-b]pyrazole-7-carbonyl)-2-azaspiro[3.3]heptan-6-yl)urea] |
| < 5 | < 5 | O=C(Nc1cccc(C(F)(F)F)c1)NC1CC2(C1)CN(C(=O)c1ccnc3cc[nH]c13)C2 [Example 46, 1-(2-(1H-pyrrolo[3,2-b]pyridine-7-carbonyl)-2-azaspiro[3.3]heptan-6-yl)-3-(3-(trifluoromethyl)phenyl)urea] |
| < 5 | 5 to 25 | CN(C(=O)Nc1cncc(C(F)(F)F)c1)C1CC2(C1)CN(C(=O)c1cnn3ccsc13)C2 [Example 47, 1-methyl-1-(2-(pyrazolo[5,1-b]thiazole-7-carbonyl)-2-azaspiro[3.3]heptan-6-yl)-3-(5-(trifluoromethyl)pyridin-3-yl)urea] |
| < 5 | 5 to 25 | COc1ccc(OC(F)(F)F)cc1NC(=O)NC1CC2(C1)CN(C(=O)c1ccnc3ccsc13)C2 [Example 48, 1-(2-methoxy-5-(trifluoromethoxy)phenyl)-3-(2-(thieno[3,2-b]pyridine-7-carbonyl)-2-azaspiro[3.3]heptan-6-yl)urea] |
| < 5 | < 5 | O=C(Nc1cncc(C(F)(F)F)c1)NC1CC2(C1)CN(C(=O)c1ccnc3ccsc13)C2 [Example 49, 1-(2-(thieno[3,2-b]pyridine-7-carbonyl)-2-azaspiro[3.3]heptan-6-yl)-3-(5-(trifluoromethyl)pyridin-3-yl)urea] |
| < 5 | 5 to 25 | CN(C(=O)Nc1cccc(CC(F)(F)F)c1)C1CC2(C1)CN(C(=O)c1cnn3ccn(C)c13)C2 [Example 50, 1-methyl-1-(2-(1-methyl-1H-imidazo[1,2-b]pyrazole-7-carbonyl)-2-azaspiro[3.3]heptan-6-yl)-3-(3-(2,2,2-trifluoroethyl)phenyl)urea] |
| < 5 | 5 to 25 | Cn1ccn2ncc(C(=O)N3CC4(CC(NC(=O)Nc5cncc(OC(F)(F)F)c5)C4)C3)c12 [Example 51, 1-(2-(1-methyl-1H-imidazo[1,2-b]pyrazole-7-carbonyl)-2-azaspiro[3.3]heptan-6-yl)-3-(5-(trifluoromethoxy)pyridin-3-yl)urea] |
| < 5 | 5 to 25 | COc1ccc(OC(F)(F)F)cc1NC(=O)N(C)C1CC2(C1)CN(C(=O)c1cnn3ccn(C)c13)C2 [Example 52, 3-(2-methoxy-5-(trifluoromethoxy)phenyl)-1-methyl-1-(2-(1-methyl-1H-imidazo[1,2-b]pyrazole-7-carbonyl)-2-azaspiro[3.3]heptan-6-yl)urea] |
| < 5 | 5 to 25 | CN(C(=O)Nc1cc(C#N)cc(C(F)(F)F)c1)C1CC2(C1)CN(C(=O)c1cnn3ccn(C)c13)C2 [Example 53, 3-(3-cyano-5-(trifluoromethyl)phenyl)-1-methyl-1-(2-(1-methyl-1H-imidazo[1,2-b]pyrazole-7-carbonyl)-2-azaspiro[3.3]heptan-6-yl)urea] |
| < 5 | 5 to 25 | COc1ccc(OC(F)(F)F)cc1NC(=O)NC1CC2(C1)CN(C(=O)c1cnc3cccnn13)C2 [Example 54, 1-(2-(imidazo[1,2-b]pyridazine-3-carbonyl)-2-azaspiro[3.3]heptan-6-yl)-3-(2-methoxy-5-(trifluoromethoxy)phenyl)urea] |
| < 5 | 5 to 25 | COc1ccc(OC(F)(F)F)cc1NC(=O)NC1CC2(C1)CN(C(=O)c1cnn3cccnc13)C2 [Example 55, 1-(2-methoxy-5-(trifluoromethoxy)phenyl)-3-(2-(pyrazolo[1,5-a]pyrimidine-3-carbonyl)-2-azaspiro[3.3]heptan-6-yl)urea] |
